# Target: T1, Wrightia tinctoria 11S globulin (WTG) (Wrightia tinctoria, UniProt A0A162EGL7)
# T1 construct: native purification from seeds; signal peptide (first 26 residues) removed; cleaved at Asn284-Gly285 into acidic and basic subunits joined by disulphide Cys120-Cys291; 18 C-terminal residues not seen; homohexamer
# Assay: X-ray crystal structure of complex ([…] Å); co-purified ligand identified by MALDI-MS and HRMS
# Assay type: binding
# Conditions: naturally bound ligand; three pockets at interface of four chains between two trimers; two alternate orientations, 0.5 occupancy; crystals at pH 8.5
# T1 sequence (A0A162EGL7 entry or part of it): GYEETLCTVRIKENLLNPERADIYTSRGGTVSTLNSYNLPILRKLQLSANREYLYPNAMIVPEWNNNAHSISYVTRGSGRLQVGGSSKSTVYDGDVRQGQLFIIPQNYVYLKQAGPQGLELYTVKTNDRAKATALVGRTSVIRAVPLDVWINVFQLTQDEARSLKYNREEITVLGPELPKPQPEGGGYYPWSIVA
# T1 sequence (A0A162EGL7 entry or part of it): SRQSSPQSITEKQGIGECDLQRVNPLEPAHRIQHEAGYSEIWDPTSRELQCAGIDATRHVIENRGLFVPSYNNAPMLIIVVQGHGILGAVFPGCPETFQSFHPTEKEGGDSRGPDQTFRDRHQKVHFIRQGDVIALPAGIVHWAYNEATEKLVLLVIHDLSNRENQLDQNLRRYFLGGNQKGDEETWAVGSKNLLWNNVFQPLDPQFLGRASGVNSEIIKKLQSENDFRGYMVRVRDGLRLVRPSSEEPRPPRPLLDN
smiles,measurement,value
O=C(O)Cc1c[nH]c2ccccc12 [Indole-3-acetic acid],X-ray crystal structure of complex (1.7 Å); co-purified ligand identified by MAL,clearly revealed the presence of an IAA molecule in alternate orientation at the hydrophobic site
